Patent US20150140020A1, “PHARMACEUTICAL COMPOSITION FOR TREATING ADVERSE REACTIONS DUE TO ADMINISTRATION OF SPIEGELMERS” (Freie Universitaet Berlin, priority 2009, published 2015)
[L-RNA-N] = L-ribonucleotide (mirror-image RNA) (N: the base); {FAM} = fluorescein label

What was measured:
Assay type in all cases: biochemical
[1] = test system: L-target (Seq-ID 1 RNA with L-nucleotides); test: Cleavage assay: L-target with D-ribozyme; settings: FIG. 2; MgCl2 0-25 mM; 0.2 μM target with 2 μM ribozyme
Experimental: (§1) The activities of L-ribozymes and D-ribozymes were measured in various conditions. The basic conditions were as follows. […] in 50 mM Tris-HCl buffer, pH 7.5, at 20° C. for 2 hours (ribozymes/target ratio therefore 10:1, 1:1 and 1:10). Before the reaction, target RNA and ribozyme were denatured for 2 minutes at 70° C. and cooled slowly (1° C./min) in the heating unit to 25° C. The influence of the Mg^2+ ions at concentration from 0.1 to 25 mM was investigated. Cleavage products were separated on 20% polyacrylamide gel electrophoresis in the presence of 8 M urea in 0.09 M Tris-borate buffer, pH 8.3. The fluorescence was analyzed on Phosphoimager Fuji Film FLA 5100. The data were obtained with the program Fuji Analysis Program. Diagrams were prepared with Excel.
(§2) The following were prepared as target sequences by way of contract synthesis by the company ChemGenes Corporation, Wilmington, USA: • Seq-ID 1: 5′-FAM-ACAGUCGGUCGCC-3′ (RNA, both with D-nucleotides and with L-nucleotides) and • Seq-ID 2: 5′-FAM-ACAGTCGGTCGCC-3′ (DNA, both with D-nucleotides and with L-nucleotides).
All synthesis products were labeled with fluorescein at the 5′-end. […]

[2] = test system: D-target (Seq-ID 1 RNA with D-nucleotides); test: Cleavage assay: D-target with D-ribozyme; settings: FIG. 4B; MgCl2 1-25 mM; 10-fold ribozyme excess
Experimental: as §1, §2
(§3) All synthesis products were labeled with fluorescein at the 5′-end.

[3] = test system: L-target (Seq-ID 1 RNA with L-nucleotides); test: Cleavage assay: L-target with L-ribozyme
Experimental: as §1, §2, §3

[4] = test system: L-target; test: Cleavage of L-target by L-ribozyme in human serum; settings: FIG. 12; conditions of human serum
[5] = test system: D-target (Seq-ID 1 RNA with D-nucleotides); test: Cleavage assay: D-target with L-ribozyme
Experimental: as §1, §2, §3
C is the control (L-target+L-ribozyme), tracks 1 to 5 are the various MgCl2 concentrations given in the diagram (0-25 mM) for target without ribozyme, tracks 6 to 9 0.2 μM target with 2 μM ribozyme.

Row | Substance | cleavage of L-target by D-ribozyme [1] | proportion of cleavage products of D-target with D-ribozyme as a function of MgCl2 concentration [2] | proportion of cleavage products of L-target with L-ribozyme as a function of MgCl2 concentration ([3]; FIG. 4B, MgCl2 1-25 mM, 10-fold ribozyme excess) | cleavage of L-target by L-ribozyme ([3]; FIGS. 4 to 11, all usual conditions (0.1-25 mM MgCl2, ribozyme excess to deficit)) | turnover rates of L-ribozyme with L-target ([3]; FIGS. 4 to 11, relative to D-ribozyme with D-target) | cleavage of L-target by L-ribozyme in human serum [4] | cleavage of D-target by L-ribozyme ([5]; FIG. 2, MgCl2 0-25 mM, 0.2 μM target with 2 μM ribozyme) | proportion of cleavage products of the D-target by L-ribozyme as a function of MgCl2 concentration ([5]; FIG. 2C, increasing Mg concentration) | proportion of cleavage products of the D-target by L-ribozyme over time ([5]; FIG. 3, 10 mM MgCl2, times 0 to 256 min, compared with L-target/D-ribozyme)
1 | 5′-FAM-GGCGACCCUGAUGAGGCCGAAAGGCCGAAACUGU-3′ (RNA, 5' {FAM}, backbone not given here) [D-ribozyme] | does not cleave | increases with increasing Mg concentration | – | – | – | – | – | – | –
2 | 5′-FAM-GGCGACCCUGAUGAGGCCGAAAGGCCGAAACUGU-3′ (all [L-RNA-N], 5' {FAM}, backbone not given here) [L-ribozyme] | – | – | increases with increasing Mg concentration | effectively cuts | at least correspond to those of a D-ribozyme with a D-target | functions effectively | a notable reaction certainly occurs | increases with increasing Mg concentration | increases with time
